This note sets out measurements from patent publication US12583895B2, “Polypeptides for restoring endothelial function and methods of use thereof” (Vanderbilt University, priority 2019, dated 2026).

Each structure is given as a SMILES string.

The subject of one assay is rat aorta. Nature of the assay: Carbachol-induced relaxation of anisomycin-treated rat aorta. Format: cell-based. The following applies: rat aorta; anisomycin 200 μM, 1 h. As to the method:
(§1) RA rings were suspended in a muscle bath and incubated with either buffer alone (Ctrl), Aniso (200 μM) for 1 h, or NiPp (500 μM) for 30 min followed by Aniso (200 μM) for 1 h. […] Proteins were extracted […] immunoblotted to examine p38MAPK phosphorylation. Quantification of relative phosphorylation to total p38MAPK level is shown. n=10, *p<0.05 in one-way ANOVA with Tukey post-test. NiPp restores endothelial dysfunction and reduced p38 MAPK phosphorylation induced by anisomycin in RA.
RA rings were suspended in a muscle bath and incubated with either buffer alone (Ctrl), Aniso (200 μM) for 1 h, or NiPp (500 μM) for 30 min followed by Aniso (200 μM) for 1 h. […] The force generated was determined and was adjusted to the weight and length of the tissue. Representative tracings from 1 out of 6 different rats are shown. […] Proteins were extracted and phosphorylation of p38 MAPK was determined by Western blot analysis. […] Data are expressed as mean±SD. […]
This produced the maximal force tension relationship as previously described. […] Contractile responses were defined by stress, calculated using force generated by tissues as follows: stress (×10^5 N/m^2)=force (g)×0.0987/area, where area=wet weight (mg)/at maximal length (mm)]/1.055.
Relaxation was calculated as percent change in stress compared to the maximal PE-induced contraction (set as 100%). […]

For the next assay, the system named is p38 MAPK phosphorylation. Briefly: p38 MAPK phosphorylation (Western blot) in anisomycin-treated rat aorta. It counts as cell-based. The following applies: anisomycin 200 μM, 1 h. As to the method:
as §1
RA rings were suspended in a muscle bath and incubated with either buffer alone (Ctrl), Aniso (200 μM) for 1 h, or NiPp (500 μM) for 30 min followed by Aniso (200 μM) for 1 h. […] The force generated was determined and was adjusted to the weight and length of the tissue. […] Proteins were extracted and phosphorylation of p38 MAPK was determined by Western blot analysis. […] Data are expressed as mean±SD.
p38 MAPK activation with Anisomycin. […] After treatments, endothelial-dependent relaxation was determined or tissues were snap-frozen for Western blot analysis.
Western blot Analysis. […] The protein-antibody complexes were visualized and quantified using the Odyssey Infrared Imaging System. Phosphorylation was calculated as a ratio of the phosphorylated protein to total protein and was then normalized to the untreated tissues (Ctrl) with the control value set as 1.0.
(In general: A western blot detects proteins with antibodies after separation by electrophoresis.)

As to `COc1ccc(C[C@H]2NC[C@H](O)[C@H]2OC(C)=O)cc1` [Anisomycin, anisomycin, reference compound], in the assay with rat aorta, the “effect of anisomycin alone on endothelial dependent relaxation” value was “impaired”. Besides, the “effect of anisomycin alone on phosphorylation of p38 MAPK” value in the assay on p38 MAPK phosphorylation is reported as “increases”.
